Values of other authors, collected in US7141382B1, “Methods for detection of IL-18 as an early marker for diagnosis of acute renal failure and predictor of mortality” (priority 2004, dated 2006).
Like-named read-outs stand apart in the source and are kept apart here.

Tested on: freshly isolated proximal tubules from C57BL/6 mice
Details: P<0.01 vs. hypoxia, n=6

## CC(C)[C@H](NC(=O)c1ccc2ccccc2n1)C(=O)N[C@@H](CC(=O)O)C(=O)COc1c(F)cccc1F [OPH-001]
25 minutes of hypoxic injury, hypoxic tubules preincubated with OPH-001 (100 μM), normoxic 11%±1%, vehicle (DMSO) 38%±6%
  LDH release: 22%±1%

## recombinant IL-18: exogenous recombinant IL-18 added to the proximal tubule suspension
Sublethal (12 minutes) hypoxia, tubules preincubated with recombinant IL-18 (1 μg per 6 ml of tubule suspension), normoxic 10%±1%, vehicle (saline) 13%±1%
  LDH release: 18%±1%
